pIC50: −log10 of the molar value.
Legend:
FLT3 kinase = biological target: T1, FLT3 kinase (Homo sapiens, UniProt P36888); test: FLT3 kinase assay (AlphaScreen); format: biochemical; conditions: read-out: Ranking of IC50 values, FLT3
T1 construct: purchased SignalChem
T1 sequence (P36888 27-993): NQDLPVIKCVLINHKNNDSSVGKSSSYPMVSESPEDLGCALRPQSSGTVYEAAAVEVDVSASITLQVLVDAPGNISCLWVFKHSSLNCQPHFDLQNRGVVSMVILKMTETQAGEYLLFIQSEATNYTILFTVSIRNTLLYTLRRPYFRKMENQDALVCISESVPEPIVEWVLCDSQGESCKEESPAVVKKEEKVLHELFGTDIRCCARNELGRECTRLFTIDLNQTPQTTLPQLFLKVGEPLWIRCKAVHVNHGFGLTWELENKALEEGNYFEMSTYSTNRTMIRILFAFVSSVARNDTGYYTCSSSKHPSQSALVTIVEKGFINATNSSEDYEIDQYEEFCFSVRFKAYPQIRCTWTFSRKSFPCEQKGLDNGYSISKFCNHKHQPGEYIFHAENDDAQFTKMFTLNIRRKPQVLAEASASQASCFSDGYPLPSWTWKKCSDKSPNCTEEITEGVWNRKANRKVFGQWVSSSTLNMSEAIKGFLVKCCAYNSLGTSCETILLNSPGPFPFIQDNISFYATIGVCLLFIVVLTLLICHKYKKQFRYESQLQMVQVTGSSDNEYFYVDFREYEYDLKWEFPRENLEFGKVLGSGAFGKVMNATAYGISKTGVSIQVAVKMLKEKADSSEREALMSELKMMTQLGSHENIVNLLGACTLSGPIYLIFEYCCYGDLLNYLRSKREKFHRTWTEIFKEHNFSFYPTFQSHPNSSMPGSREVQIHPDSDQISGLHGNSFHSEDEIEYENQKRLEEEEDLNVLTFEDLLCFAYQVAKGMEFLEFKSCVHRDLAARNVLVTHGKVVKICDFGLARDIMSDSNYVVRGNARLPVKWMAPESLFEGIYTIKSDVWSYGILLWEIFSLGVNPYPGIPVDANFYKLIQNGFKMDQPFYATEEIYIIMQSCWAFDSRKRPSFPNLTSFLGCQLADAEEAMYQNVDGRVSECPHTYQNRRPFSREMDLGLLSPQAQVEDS
How it was run: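 Recombinant FLT3 (1.5 ng) phosphorylated biotinylated poly(Glu4:Tyr1) with 10 μM ATP in MOPS pH 7.0 buffer containing 10 mM MgCl2, 30 min at 30 °C, stopped with EDTA. Product detected by AlphaScreen; IC50 from duplicate serial dilutions.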

[1] = system: phosphorylation of FLT3 and its down-stream effector STAT5; test: Western blotting of p-FLT3 and p-STAT5 in MV4-11 cells; format: cell-based; conditions: Homo sapiens; at 30 nM treatment, 3 hours, FLT3-ITD positive MV4-11 leukemia cells; read-out: inhibition activity against phosphorylation of FLT3 and its down-stream effector STAT5
Protocol: The potent compounds of formula (I) in EXAMPLE 2 were evaluated, by western blotting assay, for their cellular potencies against phosphorylation of FLT3 and its down-stream effector STAT5 in MV4-11 leukemia cell line with constitutive activation of FLT3 signaling. For western blotting experiments, MV4-11 cells were cultured in IMDM medium containing 0.1% FBS overnight. On the assay day, three million cells were treated with or without compounds for 3 hours in 15 mL tubes. Then, the whole cell lysates were harvested, following extraction by adding 2×SDS Sample Buffer and boiling on hot plate at 105° C. for 15 minutes. The resulting cell lysates were separated by SDS-PAGE electrophoresis and transferred to PVDF membrane. Protein expression was detected using immunoblot with corresponding primary antibody and secondary antibody following the standard procedures. Antibody against p-FLT3 (Tyr-591), anti-rabbit IgG HRP-linked secondary antibody, and anti-mouse IgG HRP-linked secondary antibody were purchased from Cell Signaling Technology. Antibody against p-STAT5 (Tyr-694) was purchased from BD biosciences. Antibody against actin was purchased from R&D system. […] Band intensities of western blot were also quantified by ChemiDoc™ MP Imaging System. Relative intensities of bandscorresponding to drug treatments at a single concentration (30 nM) were compared to the DMSO control group. The percentage (%) inhibition at each drug concentration was calculated using the formula: Percentage(%)inhibition=(1−Relative intensity)×100.

PDGFRα kinase = biological target: T2, PDGFRα kinase (Homo sapiens, UniProt P16234); test: PDGFRα kinase assay (AlphaScreen); format: biochemical; conditions: read-out: Ranking of IC50 values, PDGFRα
T2 construct: purchased SignalChem
T2 sequence (P16234 24-1089): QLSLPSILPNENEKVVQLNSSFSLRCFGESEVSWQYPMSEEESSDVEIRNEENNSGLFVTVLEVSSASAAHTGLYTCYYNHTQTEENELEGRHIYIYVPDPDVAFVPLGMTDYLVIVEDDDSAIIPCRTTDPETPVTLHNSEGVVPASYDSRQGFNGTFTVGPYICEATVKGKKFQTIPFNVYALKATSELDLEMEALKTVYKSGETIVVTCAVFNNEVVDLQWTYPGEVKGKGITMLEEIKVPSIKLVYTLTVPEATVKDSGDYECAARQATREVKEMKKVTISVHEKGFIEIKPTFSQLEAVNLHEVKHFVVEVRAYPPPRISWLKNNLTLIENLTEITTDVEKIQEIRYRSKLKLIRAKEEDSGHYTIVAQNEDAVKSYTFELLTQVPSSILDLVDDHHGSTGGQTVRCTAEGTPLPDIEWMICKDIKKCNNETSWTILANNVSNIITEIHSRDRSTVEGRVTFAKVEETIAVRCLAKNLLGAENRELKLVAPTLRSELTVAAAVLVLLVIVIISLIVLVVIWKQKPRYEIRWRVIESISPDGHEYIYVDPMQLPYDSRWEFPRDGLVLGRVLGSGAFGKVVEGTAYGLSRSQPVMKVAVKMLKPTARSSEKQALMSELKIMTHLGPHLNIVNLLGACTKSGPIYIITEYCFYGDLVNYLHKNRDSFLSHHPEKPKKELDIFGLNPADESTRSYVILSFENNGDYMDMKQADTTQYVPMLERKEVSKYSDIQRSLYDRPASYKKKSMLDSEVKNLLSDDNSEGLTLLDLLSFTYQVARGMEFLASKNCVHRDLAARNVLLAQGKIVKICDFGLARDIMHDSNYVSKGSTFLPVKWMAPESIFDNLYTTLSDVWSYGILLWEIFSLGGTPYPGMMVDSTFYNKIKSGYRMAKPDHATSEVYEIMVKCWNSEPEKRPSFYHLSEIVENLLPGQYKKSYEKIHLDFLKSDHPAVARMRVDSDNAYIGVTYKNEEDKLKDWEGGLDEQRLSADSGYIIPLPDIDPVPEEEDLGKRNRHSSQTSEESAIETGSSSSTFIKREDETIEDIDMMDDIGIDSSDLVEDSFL
How it was run: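 Recombinant PDGFRα (1.5 ng) phosphorylated biotinylated poly(Glu4:Tyr1) with 10 μM ATP in MOPS pH 7.0 with 10 mM MgCl2, 30 min at 30 °C, stopped with EDTA. Product detected by AlphaScreen; IC50 from serial dilutions run in duplicate.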

SMILES	pIC50 (FLT3 kinase)	inhibition at 0.03 µM [1]	pIC50 (PDGFRα kinase)
Cn1ncc2ccc(-c3n[nH]c4c3Cc3sc(-c5ccc(CCN6CCOCC6)cc5)cc3-4)cc21 [Compound 22, 4-(4-(3-(1-methyl-1H-indazol-6-yl)-1,4-dihydro-thieno[2′,3′:4,5]cyclopenta [1,2-c]pyrazol-6-yl)phenethyl)morpholine]	> 9.00	> 50%	7.52 to 8.00
Cn1ncc2ccc(-c3n[nH]c4c3Cc3sc(-c5ccc(C(=O)N6CCOCC6)nc5)cc3-4)cc21 [Compound 23, (5-(3-(1-methyl-1H-indazol-6-yl)-1,4-dihydro-thieno[2′,3′:4,5]cyclopenta [1,2-c]pyrazol-6-yl)pyridin-2-yl)(morpholino) methanone]	> 9.00	> 50%	8.00 to 9.00
COc1cc(-c2cc3c(s2)Cc2c(-c4ccc5cnn(C)c5c4)n[nH]c2-3)ccc1CN1CCOCC1 [Compound 24, 4-(2-methoxy-4-(3-(1-methyl-1H-indazol-6-yl)-1,4-dihydrothieno[2′,3′:4,5]cyclopenta[1,2-c]pyrazol-6-yl)benzyl)morpholine]	> 9.00	> 50%	8.00 to 9.00
Cn1ncc2ccc(-c3n[nH]c4c3Cc3sc(-c5ccc(CN6CCOCC6)c(F)c5)cc3-4)cc21 [Compound 25, 4-(2-fluoro-4-(3-(1-methyl-1H-indazol-6-yl)-1,4-dihydrothieno[2′,3′:4,5]cyclopenta[1,2-c]pyrazol-6-yl)benzyl)morpholine]	8.00 to 9.00	> 50%	8.00 to 9.00
CCC(c1ccc(-c2cc3c(s2)Cc2c(-c4ccc5cnn(C)c5c4)n[nH]c2-3)cc1)N1CCOCC1 (stereo not drawn) [Compound 28, 4-(1-(4-(3-(1-methyl-1H-indazol-6-yl)-1,4-dihydro-thieno[2′,3′:4,5]cyclopenta [1,2-c]pyrazol-6-yl)phenyl)propyl)morpholine]	8.00 to 9.00	> 50%	7.52 to 8.00
COc1cc(CN2CCOCC2)ccc1-c1cc2c(s1)Cc1c(-c3ccc4cnn(C)c4c3)n[nH]c1-2 [Compound 29, 4-(3-methoxy-4-(3-(1-methyl-1H-indazol-6-yl)-1,4-dihydrothieno [2′,3′:4,5]cyclopenta[1,2-c]pyrazol-6-yl)benzyl) morpholine]	> 9.00	> 50%	7.52 to 8.00
Cn1ncc2ccc(-c3n[nH]c4c3Cc3sc(-c5cncc(C(=O)N6CCOCC6)c5)cc3-4)cc21 [Compound 31, (5-(3-(1-methyl-1H-indazol-6-yl)-1,4-dihydrothieno[2′,3′:4,5]cyclopenta[1,2-c]pyrazol-6-yl)pyridin-3-yl) (morpholino)methanone]	> 9.00	> 50%	6.52 to 7.00
Cn1ncc2ccc(-c3n[nH]c4c3Cc3sc(-c5ccc(CN6CCOCC6)cc5F)cc3-4)cc21 [Compound 32, 4-(3-fluoro-4-(3-(1-methyl-1H-indazol-6-yl)-1,4-dihydrothieno [2′,3′:4,5]cyclopenta [1,2-c]pyrazol-6-yl)benzyl)morpholine]	> 9.00	> 50%	7.52 to 8.00
Cc1ccc(-c2cc3c(s2)Cc2c(-c4ccc5cnn(C)c5c4)n[nH]c2-3)cn1 [Compound 33, 3-(1-methyl-1H-indazol-6-yl)-6-(6-methylpyridin-3-yl)-1,4-dihydrothieno [2′,3′:4,5]cyclopenta [1,2-c]pyrazole]	> 9.00	> 50%	8.00 to 9.00
Cn1ncc2ccc(-c3n[nH]c4c3Cc3sc(-c5ccc(C(=O)N6CCCCC6)cc5)cc3-4)cc21 [Compound 34, (4-(3-(1-methyl-1H-indazol-6-yl)-1,4-dihydro-thieno[2′,3′:4,5]cyclopenta [1,2-c]pyrazol-6-yl)phenyl)(piperidin-1-yl) methanone]	8.00 to 9.00	> 50%	7.00 to 7.52
Cn1ncc2ccc(-c3n[nH]c4c3Cc3sc(-c5cccc(C(=O)N6CCOCC6)c5)cc3-4)cc21 [Compound 37, (3-(3-(1-methyl-1H-indazol-6-yl)-1,4-dihydro-thieno[2′,3′:4,5]cyclopenta [1,2-c]pyrazol-6-yl)phenyl)(morpholino) methanone]	8.00 to 9.00	> 50%	8.00 to 9.00
Cn1ncc2ccc(-c3n[nH]c4c3Cc3sc(-c5ccc(C(=O)N6CCCC6)cc5)cc3-4)cc21 [Compound 38, (4-(3-(1-methyl-1H-indazol-6-yl)-1,4-dihydro-thieno[2′,3′:4,5]cyclopenta [1,2-c]pyrazol-6-yl)phenyl)(pyrrolidin-1-yl) methanone]	8.00 to 9.00	> 50%	7.52 to 8.00
Cn1ncc2ccc(-c3n[nH]c4c3Cc3sc(-c5ccc(CN6CCSCC6)cc5)cc3-4)cc21 [Compound 39, 3-(1-methyl-1H-indazol-6-yl)-6-(4-(thiomorpho-linomethyl)phenyl)-1,4-dihydrothieno[2′,3′:4,5] cyclopenta[1,2-c]pyrazole]	8.00 to 9.00	> 50%	7.52 to 8.00
Cn1ncc2ccc(-c3n[nH]c4c3Cc3sc(-c5cnc(C(=O)N6CCOCC6)nc5)cc3-4)cc21 [Compound 41, (5-(3-(1-methyl-1H-indazol-6-yl)-1,4-dihydrothieno[2′,3′:4,5]cyclopenta[1,2-c]pyrazol-6-yl)pyrimidin-2-yl) (morpholino)methanone]	> 9.00	> 50%	7.52 to 8.00
CC(C)n1ncc2ccc(-c3n[nH]c4c3Cc3sc(-c5ccc(CN6CCOCC6)cc5)cc3-4)cc21 [Compound 42, 4-(4-(3-(1-isopropyl-1H-indazol-6-yl)-1,4-dihydro-thieno[2′,3′:4,5]cyclopenta [1,2-c]pyrazol-6-yl)benzyl)morpholine]	> 9.00	> 50%	7.52 to 8.00
COc1cc(-c2cc3c(s2)Cc2c(-c4ccc5cnn(C)c5c4)n[nH]c2-3)ccc1C(=O)N1CCOCC1 [Compound 43, (2-methoxy-4-(3-(1-methyl-1H-indazol-6-yl)-1,4-dihydrothieno [2′,3′:4,5]cyclopenta [1,2-c]pyrazol-6-yl)phenyl)(morpholino) methanone]	8.00 to 9.00	> 50%	8.00 to 9.00
Cn1ncc2ccc(-c3n[nH]c4c3Cc3sc(-c5ccc(C(=O)N6CCOCC6)c(F)c5)cc3-4)cc21 [Compound 44, (2-fluoro-4-(3-(1-methyl-1H-indazol-6-yl)-1,4-dihydrothieno[2′,3′:4,5]cyclopenta[1,2-c]pyrazol-6-yl)phenyl)(morpholino) methanone]	> 9.00	> 50%	8.00 to 9.00
Cn1ncc2ccc(-c3n[nH]c4c3Cc3sc(-c5cnc(N)nc5)cc3-4)cc21 [Compound 45, 5-(3-(1-methyl-1H-indazol-6-yl)-1,4-dihydrothieno [2′,3′:4,5]cyclopenta[l,2-c]pyrazol-6-yl)pyrimidin-2-amine]	> 9.00	> 50%	7.52 to 8.00
